# In publication PMC5584254, “Identification of novel small molecule Beclin 1 mimetics activating autophagy” (Oncotarget, 2017):
# Legend:
# [1] = target: Bcl-2 protein (SUMO-Bcl-2) (Homo sapiens, UniProt P10415); assay: Surface plasmon resonance assay, immobilized Bcl-2; type: binding
# Method: (§1) The surface plasmon resonance experiments were performed using a Biacore 3000 (GE Healthcare Pittsburgh, PA) equipped with a research-grade CM5 sensor chip. The ligand (Bcl-xL) was immobilized using amine-coupling chemistry. The surfaces of flow cells on a Biacore sensor chip CM5 were activated for 7 min with a 1:1 mixture of 0.1 M NHS (N-hydroxysuccinimide) and 0.1 M EDC (3-(N,N-dimethylamino) propyl-N-ethylcarbodiimide) at a flow rate of 5 μL/min. The ligand (Bcl-xL) at a concentration of 180 μg/mL in 10 mM sodium acetate, pH 4.5, was immobilized at a density of about 10000 RU on flow cell 2; the ligand (SUMO-Bcl-2, 37.5 kDa, > 90% pure based on SDS–PAGE) at a concentration of 44 μg/ml in 10 mM sodium acetate, pH 4.5, was immobilized at a density of 10000 RU on flow cell 3; flow cell 1 was left blank to serve as a reference surface. All the surfaces were blocked with a 7 min injection of 1 M ethanolamine, pH 8.0.
# (§2) For kinetic analysis, a concentration series of analyte were injected over the flow cells at a flow rate of 60 μL/min at 20 °C. The complex was allowed to associate and dissociate for 120 and 180 s, respectively. For binding studies, analyte (or test compound) was injected over the two flow cells in duplicate at indicated concentration at a flow rate of 60 μL/min at 20 °C. The running buffer consisted of 20 mM HEPES, 150 mM NaCl, 3 mM EDTA, 1 mM DTT, 0.05% P20, 5% DMSO, pH 7.4. The complex was allowed to associate and dissociate for 120 and 180 s, respectively. The buffer samples containing a range of 4–6% DMSO were injected at the beginning, used for solvent correction. The surfaces were regenerated between binding cycles with a 5 s injection of 5 mM NaOH for compounds and 10 mM Glycine pH 2.5 for 20-mer.
# All measurements were taken with flow cell 1 as a reference (i.e. sensorgram depicts “2–1 correction”) and corrected for DMSO bulk differences via the calibration curves. […] The equilibrium dissociation constant (KD) was determined by Kd/Ka.
# [2] = system: DU145, PC-3a and PC-3 prostate cancer cell lines; assay: MTT-based cytotoxicity assay, all three prostate cancer cell lines; parameters: species or system Human; settings: for IC50: Homo sapiens, DU-145, MTT, DU145, PC-3a and PC-3, read-out: cytotoxicity IC50, stated for all three cell lines together
# From the text: We also tested the cytotoxicity of the 17 compounds in human prostate cancer cell lines by MTT assay (Table 1).
# Human prostate cancer cell lines PC-3 and DU145, were purchased from American Type Culture Collection (ATCC) and used within 50 passages. […] All cells were maintained in DMEM (Mediatech, Manassas, VA) supplemented with 10% fetal bovine serum (FBS) (Sigma-Aldrich, St. Louis, MO), 1% Glutamine (Mediatech, Manassas, VA), 1% antibiotics (Mediatech, Manassas, VA). Compounds for primary FP-based HTS screening were from Prestwick, Microsource, University of Kansas Center of Excellence in Chemical Methodologies & Library Development (KU CMLD, Lawrence, KS), and Chembridge libraries. Compounds for MTT and SPR validation experiment were purchased from Microsource (Gaylordsville, CT) and Hit2lead Company (San Diego, CA). […] (–)-Gossypol was isolated from racemic gossypol as we previously described. ABT-263 and DMSO were purchased from Sigma. MTT-based cytotoxicity assay and western blot analysis was carried out according to our previous publications. The primary antibodies used were LC3B (#2775) (Cell signaling Technology, Danvers, MA) and β-actin (A5441) (Sigma).
# DU145 = assay: MTT-based cytotoxicity assay, DU145; settings: Homo sapiens, DU-145, averages of at least two independent experiments, read-out: Cytotoxicity in different cell lines (IC50, μM) DU145
# From the text: (§3) Human prostate cancer cell lines PC-3 and DU145, were purchased from American Type Culture Collection (ATCC) and used within 50 passages. PC-3a is a derivative of PC-3 that is resistant to chemo/radiotherapy, established in our lab and confirmed by genotyping. All cells were maintained in DMEM (Mediatech, Manassas, VA) supplemented with 10% fetal bovine serum (FBS) (Sigma-Aldrich, St. Louis, MO), 1% Glutamine (Mediatech, Manassas, VA), 1% antibiotics (Mediatech, Manassas, VA). Compounds for primary FP-based HTS screening were from Prestwick, Microsource, University of Kansas Center of Excellence in Chemical Methodologies & Library Development (KU CMLD, Lawrence, KS), and Chembridge libraries. Compounds for MTT and SPR validation experiment were purchased from Microsource (Gaylordsville, CT) and Hit2lead Company (San Diego, CA). Acridine analogues, compound 1–6, were from our in-house library (provided by Specialized Chemistry Center, University of Kansas, Lawrence, KS); compound 7–17 were synthesized as described in supplementary information. (–)-Gossypol was isolated from racemic gossypol as we previously described. ABT-263 and DMSO were purchased from Sigma. MTT-based cytotoxicity assay and western blot analysis was carried out according to our previous publications. The primary antibodies used were LC3B (#2775) (Cell signaling Technology, Danvers, MA) and β-actin (A5441) (Sigma).
# [3] = system: PC-3 and PC-3a prostate cancer cells; assay: Western blot of autophagy markers (LC3 conversion, P62); type: cell-based, Human
# Method: Figure 5 Acridine compounds induce autophagy in prostate cancer cells (A) LC3-II conversion in western blot analysis indicated the activity of autophagy. Cells were treated with DMSO or compounds for 24 h, and then lysed and processed for western blot analysis of LC3. (–)G and EBSS were used as positive controls. […] Yellow puncta indicate autophagosome (overlay of red and green fluorescence); red puncta indicate autolysosome (due to green fluorescence quenching at the acidic condition). Cells expressing RFP-GFP-LC3 were treated with compounds A13, A15 or A21 at indicated concentration for 24 h.
# Figure 8 Acridine compounds induce autophagy in PC-3 and PC-3a cancer cells LC3-II conversion in western blot analysis indicated the activity of autophagy. Cells were treated with DMSO or compounds for 24 h, and then lysed and processed for western blot analysis of LC3. (–)G and EBSS were used as positive controls.
# as §3
# PC-3a = assay: MTT-based cytotoxicity assay, PC-3a; settings: Homo sapiens, averages of at least two independent experiments, read-out: Cytotoxicity in different cell lines (IC50, μM) PC-3a
# From the text: as §3
# Bcl-xL protein = target: T1, Bcl-xL protein (Homo sapiens, UniProt Q07817); assay: Surface plasmon resonance assay, immobilized Bcl-xL; type: binding; settings: for binding level to Bcl-xL protein in SPR: 10 μM compound, Bcl-xL immobilized 10000 RU
# T1 construct: made in house
# T1 sequence (Q07817 whole entry): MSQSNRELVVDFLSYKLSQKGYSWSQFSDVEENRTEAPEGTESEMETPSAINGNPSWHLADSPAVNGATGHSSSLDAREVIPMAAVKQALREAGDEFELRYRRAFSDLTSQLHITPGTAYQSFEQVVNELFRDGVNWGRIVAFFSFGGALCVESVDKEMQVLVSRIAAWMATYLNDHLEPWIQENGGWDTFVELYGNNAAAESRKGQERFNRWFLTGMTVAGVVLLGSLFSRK
# Method: as §1, §2
# All measurements were taken with flow cell 1 as a reference (i.e. sensorgram depicts “2–1 correction”) and corrected for DMSO bulk differences via the calibration curves. To obtain kinetic rate constants (Ka and Kd), corrected response data were fit to a simple 1:1 interaction model using local fit (includes correction for mass transport limitations) available within Biaevaluation 3.1 software or Scrubber2 software. The equilibrium dissociation constant (KD) was determined by Kd/Ka.
# PC-3 = assay: MTT-based cytotoxicity assay, PC-3; settings: Homo sapiens, averages of at least two independent experiments, read-out: Cytotoxicity in different cell lines (IC50, μM) PC-3
# From the text: as §3
# Chain of Bcl-2 protein (SUMO-Bcl-2) (P10415 1-211 limits assumed): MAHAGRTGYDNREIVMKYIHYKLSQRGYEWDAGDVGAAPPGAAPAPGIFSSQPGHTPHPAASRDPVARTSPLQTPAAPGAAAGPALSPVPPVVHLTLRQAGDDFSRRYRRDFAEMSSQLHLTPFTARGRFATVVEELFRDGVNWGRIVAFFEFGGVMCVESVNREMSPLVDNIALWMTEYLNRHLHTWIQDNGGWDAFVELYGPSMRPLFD
"kon ([1]; SPR kinetic analysis, 1:1 model, read-out: association rate (Ka) to Bcl-2) [M⁻¹ s⁻¹]","koff ([1]; SPR kinetic analysis, 1:1 model, read-out: dissociation rate (Kd) from Bcl-2) [s⁻¹]","Kd ([1]; SPR, KD = Kd/Ka, read-out: equilibrium dissociation constant KD to immobilized Bcl-2) [µM]","kon (Bcl-xL protein; SPR kinetic analysis, 1:1 model, read-out: association rate (Ka) to Bcl-xL) [M⁻¹ s⁻¹]","koff (Bcl-xL protein; SPR kinetic analysis, 1:1 model, read-out: dissociation rate (Kd) from Bcl-xL) [s⁻¹]","Kd (Bcl-xL protein; SPR, KD = Kd/Ka, read-out: equilibrium dissociation constant KD to immobilized Bcl-xL) [µM]",selectivity for Bcl-xL protein over Bcl-2 (Bcl-xL protein; from SPR KD values),melting point [°C],SMILES,IC50 [2] [µM],"fold difference in IC50 value, PC-3 and PC-3a versus DU145 ([2]; higher cytotoxicity in PC-3 and PC-3a than in DU145)",IC50 (DU145) [µM],SQSTM1/P62 turnover [3],LC3-I to LC3-II conversion ([3]; 24 h treatment),IC50 (PC-3a) [µM],binding level to Bcl-xL protein in SPR (Bcl-xL protein; SPR),IC50 (PC-3) [µM]
3200,0.51,160,29600,0.193,6.5,about 25 fold,,CCN(CC)CCCCNc1c2ccc(Cl)cc2nc2ccc(OC)cc12 [Compound 7],< 0.5,3–5 fold,0.27 ± 0.13,degradation of P62,triggered the conversion of LC3-I to LC3-II,0.1 ± 0.05,higher binding level than original hit A21,0.11 ± 0.07
,,,,,,,135 to 138,COc1ccc2nc3cc(Cl)ccc3c(N3CCN(C)CC3)c2c1 [Compound 9],,,6.24 ± 1.86,,,3.51 ± 1.15,,2.93 ± 1.18
,,,,,,,207 to 211,COc1ccc2nc3cc(Cl)ccc3c(-c3ccc([N+](=O)[O-])cc3)c2c1 [Compound 14],> 100,,> 100,,,> 100,almost no binding,> 100
